Patent US5593970A, “Heterocyclic anthracycline analogs” (priority 1994, dated 1997)
Where “and” joins values, the source holds several entries; their conditions need not be identical. Identical values can stand only once. Counter-ions that a name gives are not always drawn. Like-named read-outs stand apart in the source and are kept apart here.

Experiments:
Test in all cases: Microculture tetrazolium assay
Assay type in all cases: cell-based
[1] = system: SKVLB; conditions: for VLB/OV3: IC50 ratio SKVLB/SKOV3; for IC50: SKVLB
[2] = system: HT29
[3] = system: SKOV3
[4] = system: LOX; conditions: read-out: IC50
[5] = HT29, hydrochloride, read-out: IC50
[6] = Homo sapiens, HT-29, HT29, read-out: IC50
[7] = Homo sapiens, SK-OV-3, SKOV3, read-out: IC50
[8] = SKOV3, hydrochloride, read-out: IC50

| Structure (SMILES) | IC50 ([1]; read-out: IC50) | IC50 [2, 6] [nM] | VLB/OV3 [1] | IC50 [3, 7] [nM] | IC50 [4] [nM] | other results |
| --- | --- | --- | --- | --- | --- | --- |
| CC(=O)C1Cc2c(O)c3c(c(O)c2C(O[C@H]2C[C@H](N)[C@H](O)[C@H](C)O2)O1)C(=O)c1ccccc1C3=O (mixture of isomers) [BCH-1130, (1'S,1S,3R) and (1'S,1R,3S)-Methyl-[5,12-dihydroxy-1-(2',3',6'-trideoxy-3'-amino-4'-hydroxy-L-lyxohexopyranose)-6,11-dioxo-3,4,6,11-tetrahydroanthraceno-(2,3-C)pyran-3-yl]ketone hydrochloride] | 573 nM | 170 |  |  |  | VLB/OV3 ([1]; hydrochloride): 21.87 and 19.04; IC50 ([1]; hydrochloride, read-out: IC50): 1030 nM; IC50 [2, 5]: 127 nM |
| CC(=O)C1Cc2c(O)c3c(c(O)c2C(O[C@H]2C[C@H](N4CCOCC4)[C@H](O)[C@H](C)O2)O1)C(=O)c1ccccc1C3=O (mixture of isomers) [BCH-1191, (1'S,1R,3S) and (1'S,1S,3R)-Methyl(1-(2',3',6'-trideoxy-3'-morpholino-L-lyxohexopyranose)-6,11-dioxo-5,12-dihydroxy-3,4,6,11-tetrahydroanthraceno[2,3-c]pyran-3-yl)ketone] |  |  | 3.57 |  |  | IC50 [1]: 1050 nM |
| C[C@@H]1O[C@@H](O[C@@H]2O[C@@H](C(C)(F)F)CC3=C2C(=O)c2cc4ccccc4c(O)c2C3=O)C[C@H](NC(=O)C(F)(F)F)[C@@H]1O (mixture of isomers) [BCH-1677, (1'S,1R,3S) and (1'S,1S,3R)-5,12-dioxo-3-(1,1-difluoroethyl)-6-hydroxy-1-(2',3',6'-trideoxy-3'-trifluoroacetamido-L-lyxohexopyranose)-3,4,5,12-tetrahydroanthraceno-[2,3-c]-pyran] | 7790 nM | 5440 | 1.65 | 4710 | 2480 |  |
| CC(=O)C1CC2=C(C(=O)c3cc4ccccc4c(O)c3C2=O)C(O[C@H]2CC[C@H](NC(=O)C(F)(F)F)[C@H](C)O2)O1 (mixture of isomers) [BCH-1680, (1'S,1S,3R) and (1'S, 1R, 3S)-methyl-{6-hydroxy-1(2',3',4',6'-tetradeoxy-4'-trifluoroacetamido-L-lyxohexopyranose)-5,12-dioxo-3,4,5,12-tetrahydroanthraceno-[2,3-c]pyran-3-yl}ketone] | 3830 nM | 2240 | 1.36 | 2810 | 2260 |  |
| C[C@@H]1O[C@@H](O[C@@H]2O[C@@H](C(=O)C(C)(C)C)CC3=C2C(=O)c2cc4ccccc4c(O)c2C3=O)C[C@H](NC(=O)C(F)(F)F)[C@@H]1O (mixture of isomers) [BCH-2197, (1'S, 1S,3S) and (1'S,1R, 3R)-tert-butyl-(6-hydroxy-1-(2',3',6'-trideoxy-3'-trifluoroacetamido-4-hydroxy-L-lyxohexopyranose)-5,12-dioxo-3,4,5,12-tetrahydroanthraceno-[2,3-c]-pyran-3-yl)-ketone] | 3020 nM | 520 | 1.09 | 2770 |  |  |
| C[C@@H]1O[C@@H](O[C@H]2O[C@H](C(=O)C(C)(C)C)CC3=C2C(=O)c2cc4ccccc4c(O)c2C3=O)C[C@H](NC(=O)C(F)(F)F)[C@@H]1O (mixture of isomers) [BCH-2198, (1'S, 1S,3S) and (1'S,1R, 3R)-tert-butyl-(6-hydroxy-1-(2',3',6'-trideoxy-3'-trifluoroacetamido-4-hydroxy-L-lyxohexopyranose)-5,12-dioxo-3,4,5,12-tetrahydroanthraceno-[2,3-c]-pyran-3-yl)-ketone] | 4150 nM | 2410 | 0.94 | 4400 |  |  |
| CCC1Cc2c(O)c3c(c(O)c2C(C[C@H]2C[C@H](N)[C@H](O)[C@H](C)O2)O1)C(=O)c1ccccc1C3=O (mixture of isomers) [BCH-2817, (1'S,2'R, 3'S,5'R, 1S,3R) and (1'S,2'R, 3'S,5'R, 1R, 3S)-1-(3-amino-2-hydroxy-1-methyltetrahydropyran-5-yl)methyl-3-ethyl-5,12-dihydroxy-6,11-dioxo-3,4,6,11-tetrahydroanthraceno-[2,3-c]pyran hydrochloride] | 11000 nM | 3530 | 6.59 | 1670 |  |  |
| CC(=O)[C@H]1CC2=C(C(=O)c3cc4ccccc4c(O)c3C2=O)[C@H](O[C@H]2C[C@H](N)[C@H](O)[C@H](C)O2)O1 [BCH-1127] |  |  | 1.87 and 3.24 |  |  |  |
| CC[C@H]1CC2=C(C(=O)c3cc4ccccc4c(O)c3C2=O)[C@H](O[C@H]2C[C@H](NC(=O)C(F)(F)F)[C@H](O)[C@H](C)O2)O1 [BCH-1187, (1'S,1S,3S)-5,12-dioxo-3-ethyl-6-hydroxy-1-(2',3',6'-trideoxy-3'-trifluoroacetamido-4'-hydroxy-L-lyxohexopyranose)-3,4,5,12-tetrahydroanthraceno[2,3-c]pyran] | 3860 nM and 3880 nM | 1420 | 3.22 and 2.10 | 1200 |  | IC50 ([3]; SKOV3, read-out: IC50): 1850 nM; IC50 ([2]; HT29, read-out: IC50): 1980 nM |
| COC(=O)[C@H](C)O[C@@H]1OC(C(=O)OC)(C(=O)OC)CC2=C1C(=O)c1cc3ccccc3c(O)c1C2=O [BCH-1668, (1R,1'S)-3,3-Bis-carbomethoxy-1-(1'-carbomethoxyethoxy)-5,12-dioxo-6-hydroxy-3,4,5,12-tetrahydroanthraceno[2,3-C]pyran] | 6200 nM | 5700 |  | 6200 | 5200 |  |
| CC(=O)C1CC2=C(C(=O)c3cc4ccccc4c(O)c3C2=O)C(OC[C@H](O)CO)O1 (stereo partly drawn) [BCH-1669] | 1050 nM | 591 | 0.87 | 1210 | 631 |  |
| CC(=O)C1CC2=C(C(=O)c3cc4ccccc4c(O)c3C2=O)C(OC[C@@H](O)CO)S1 (stereo partly drawn) [BCH-1670] | 680 nM | 342 | 1.24 | 547 | 673 |  |
| CC(=O)O[C@@H]1[C@H](C)O[C@@H](O[C@H]2S[C@H](C(C)=O)CC3=C2C(=O)c2cc4ccccc4c(O)c2C3=O)C[C@@H]1OC(C)=O [BCH-1671] |  |  | 0.82 and 1.00 |  |  |  |
| CC(=O)[C@H]1Cc2c(O)c3c(c(O)c2[C@H](O[C@@H]2O[C@@H](C)[C@@H](O)[C@@H](O)C2I)O1)C(=O)c1ccccc1C3=O (stereo partly drawn) [BCH-1675] |  | 5280 |  |  | 1180 |  |
| C[C@@H]1O[C@@H](O[C@@H]2O[C@@H](c3ccccc3)CC3=C2C(=O)c2cc4ccccc4c(O)c2C3=O)C[C@H](N)[C@@H]1O [BCH-2013] | 4640 nM |  |  |  | 554 |  |
| C=CC[C@H]1Cc2c(O)c3c(c(O)c2[C@H](O[C@H]2C[C@H](N)[C@H](O)[C@H](C)O2)O1)C(=O)c1ccccc1C3=O [BCH-2106, (1'S,1S,3S)-3-(5,12-dihydroxy-1-(2',3',6'-trideoxy-3'-amino-4'-hydroxy-L-lyxohexopyranose)-6,11-dioxo-3,4,5,12-tetrahydroanthraceno-[2,3-c]pyran-3-yl)propene hydrochloride] |  |  |  | 148 |  |  |
| C=C(C)[C@H]1Cc2c(O)c3c(c(O)c2[C@H](O[C@H]2C[C@H](N)[C@H](O)[C@H](C)O2)O1)C(=O)c1ccccc1C3=O [BCH-2188, (1'S,1S,3R)-5,12-dihydroxy-6,11-dioxo-3-isopropenyl-1-(2',3',6'-trideoxy-3'-amino-L-lyxohexopyranose)-3,4,5,12-tetrahydroanthraceno-[2,3-c]-pyran hydrochloride] | 198 nM | 211 |  | 374 |  | IC50 [3, 8]: 640 nM; VLB/OV3 ([1]; hydrochloride): 0.53 and 0.46; IC50 ([1]; hydrochloride, read-out: IC50): 297 nM; IC50 [2, 5]: 310 nM |
| C=C(C)[C@@H]1Cc2c(O)c3c(c(O)c2[C@@H](O[C@H]2C[C@H](N)[C@H](O)[C@H](C)O2)O1)C(=O)c1ccccc1C3=O [BCH-2189, (1'S,1R,3S)-5,12-dihydroxy-6,11-dioxo-3-isopropenyl-1-(2',3',6'-trideoxy-3'-amino-L-lyxohexopyranose)-3,4,5,12-tetrahydroanthraceno-[2,3-c]-pyran hydrochloride] |  | 147 |  | 268 |  | IC50 [3, 8]: 342 nM; VLB/OV3 ([1]; hydrochloride): 0.39 and 0.73; IC50 [2, 5]: 144 nM |
| CC(C)[C@H]1Cc2c(O)c3c(c(O)c2[C@H](O[C@H]2C[C@H](N4CCOCC4)[C@H](O)[C@H](C)O2)O1)C(=O)c1ccccc1C3=O [BCH-2190, (1'S,1S,3R)-5,12-dihydroxy-6,11-dioxo-3-isopropyl-1-(2',3',6-trideoxy-3'-(4-morpholinyl)-L-lyxohexopyranose)-3,4,5,12-tetrahydroanthraceno-[2,3-c]-pyran] | 3180 nM | 3710 | 1.93 | 1650 |  |  |
| CC(C)[C@H]1Cc2c(O)c3c(c(O)c2[C@H](O[C@H]2C[C@H](N4CCOCC4)[C@H](O)[C@H](C)O2)O1)C(=O)c1ccccc1C3=O [BCH-2192, (1'S,1S,3R)-5,12-dihydroxy-6,11-dioxo-3-isopropyl-1-(2',3',6'-trideoxy-3'(4-morpholinyl)-L-lyxohexopyranose)-3,4,5,12-tetrahydroanthraceno-[2,3-c]-pyran hydrochloride] |  |  |  |  |  | IC50 [3, 8]: 1930 nM; VLB/OV3 ([1]; hydrochloride): 1.18; IC50 ([1]; hydrochloride, read-out: IC50): 2280 nM; IC50 [2, 5]: 4650 nM |
| CC(C)[C@H]1Cc2c(O)c3c(c(O)c2[C@H](O[C@H]2C[C@H](N4CCOCC4C#N)[C@H](O)[C@H](C)O2)O1)C(=O)c1ccccc1C3=O (stereo partly drawn) [BCH-2195, (1'S,1S,3R)-5,12-dihydroxy-6,11-dioxo-3-isopropyl-1-(2',3',6'-trideoxy-3'(3-cyano-4-morpholinyl)-L-lyxohexopyranose)-3,4,5,12-tetrahydroanthraceno-[2,3-c]-pyran] |  |  | 2.22 |  |  | IC50 ([3]; Homo sapiens, SK-OV-3, SKOV3): 4550 nM; IC50 [1]: 10100 nM; IC50 ([2]; Homo sapiens, HT-29, HT29): 3400 nM |
| C[C@@H]1O[C@@H](O[C@@H]2O[C@@H](C(=O)OC(C)(C)C)CC3=C2C(=O)c2cc4ccccc4c(O)c2C3=O)C[C@H](NC(=O)C(F)(F)F)[C@@H]1O [BCH-2850] | 5200 nM | 5100 | 1.49 | 3500 |  |  |
